Format in all cases: biochemical
For one assay, the target named is T1, ALDH2*1/*1 (Homo sapiens, UniProt P05091).
T1 construct: His-tag (N); made in house; host or cells: E. coli BL21 (pTrcHis vector)
T1 sequence (P05091 18-517): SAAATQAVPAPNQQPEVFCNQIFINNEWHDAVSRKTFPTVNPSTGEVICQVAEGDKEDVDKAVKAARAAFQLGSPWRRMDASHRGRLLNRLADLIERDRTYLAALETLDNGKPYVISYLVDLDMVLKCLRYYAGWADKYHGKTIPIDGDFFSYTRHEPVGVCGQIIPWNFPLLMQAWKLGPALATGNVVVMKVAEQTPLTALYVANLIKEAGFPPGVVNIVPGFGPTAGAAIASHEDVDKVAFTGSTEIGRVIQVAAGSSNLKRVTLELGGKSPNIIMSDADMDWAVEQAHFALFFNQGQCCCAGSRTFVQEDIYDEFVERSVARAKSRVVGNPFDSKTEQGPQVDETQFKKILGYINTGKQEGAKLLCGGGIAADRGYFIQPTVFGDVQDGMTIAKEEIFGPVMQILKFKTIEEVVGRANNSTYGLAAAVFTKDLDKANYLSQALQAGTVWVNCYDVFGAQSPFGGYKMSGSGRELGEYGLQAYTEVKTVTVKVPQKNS
Description: ALDH2 enzymatic activity, NADH accumulation at 340 nm, acetaldehyde substrate, wild type. The note with it: relative to baseline enzymatic activity (100%); for activity at 2.5 µM: 2.5 μM compound; for activity at 5 µM: 5 μM compound; for activity at 10 µM: 10 μM compound; for activity at 20 µM: 20 μM compound. On the procedure:
(§1) ALDH2 catalyzes the oxidative reaction of substrate acetaldehyde to acetic acid using NAD^+ as a cofactor. Enzymatic activity, or catalytic rate, of aldehyde dehydrogenase (ALDH2) are measured spectrophotometrically at UV wavelength λ340 nm by the accumulation of reduced product NADH derived from NAD^+. Absorbance at λ340 nm is quantitatively proportional to the amount of NADH being produced over time (6.22 O.D. unit=1 mmol of NADH, measured in a 1-cm width standard cuvette). This method is well-established in the literature [e.g. Rex et al., Alcohol Clin. Exp. Res. 9, 147 (1985)].
(§2) ALDH2 catalyzes the oxidative reaction of substrate acetaldehyde to acetic acid using NAD^+ as a cofactor. Enzymatic activity, or catalytic rate, of aldehyde dehydrogenase (ALDH2) can be measured spectrophotometrically at UV wavelength λ340 nm by the accumulation of reduced product NADH derived from NAD^+. Absorbance at λ340 nm is quantitatively proportional to the amount of NADH being produced over time (6.22 O.D. unit=1 mmol of NADH, measured in a 1-cm width standard cuvette). This method is well-established in the literature [e.g. Rex et al., Alcohol Clin. Exp. Res. 9, 147 (1985)].
(§3) Cloning, expression and purification of human ALDH2 wild type and ALDH2*2 recombinant mutant enzymes: Full-length wild type human ALDH2 cDNA was purchased from ATCC (No. MGC-1806. GenBank ID: BC002967). The 18-amino acid mitochondria transport signal sequence was removed by PCR and cloned into the NheI/HindIII sites of a His-tag vector, pTrcHis, using standard molecular cloning techniques. The human ALDH2* cDNA construct containing the Asian E487K mutation was obtained by site-directed mutagenesis to create the E487K substitution of the wild type ALDH2. Both human clones were designed to express a recombinant protein with the His-tag at the N-terminus of the protein. For the co-expression experiments of human ALDH2 wild type and ALDH2*2 heterotetramers, a wild type ALDH2 gene and a ALDH2 E487K gene were inserted separately into the two multiple cloning sites of pETDuet-1 vector. (Novagen, CA, USA). All the vectors were transformed into BL21 E. coli host cells and subjected to 0.5 mM IPTG induction for protein expression at 30° C. Purifications of the recombinant proteins by affinity nickel columns (HisTrap, GE Healthy Science, USA) were carried out using standard protocols according to manufacturer's instructions (Novagen, USA).
(§4) ALDH2 catalyzes the oxidative reaction of substrate acetaldehyde to acetic acid using NAD^+ as a cofactor. Enzymatic activity, or catalytic rate, of aldehyde dehydrogenase (ALDH2) can be measured spectrophotometrically at UV wavelength λ340 nm by the accumulation of reduced product NADH derived from NAD^+. Because compounds of formula (I) are considered to be agonists or “activators” of ALDH2 the enzymatic activity measured will exceed 100% of the baseline enzymatic activity of the enzyme in its normal activation state. As the concentration of the compounds of formula (I) decreases from 20 micromolar to 0.16 micromolar in the presence of ALDH, a decrease in the activation of enzymatic activity is observed for the wild-type ALDH2*1/*1 and the heterozygous form ALDH2*1/*2.

For a further assay, the target named is T2, ALDH2*1/*2 (Homo sapiens, UniProt P05091, E504K).
T2 construct: His-tag; made in house; host or cells: E. coli BL21 (pETDuet-1 co-expression)
T2 sequence (P05091 18-517): T1 sequence (P05091 18-517)
T2 sequence (P05091 18-517 E504K): T1 sequence (P05091 18-517) with E487K
Description: ALDH2 enzymatic activity, NADH accumulation at 340 nm, acetaldehyde substrate, heterozygous form. Conditions: relative to baseline enzymatic activity (100%); for activity at 2.5 µM: 2.5 μM compound; for activity at 5 µM: 5 μM compound; for activity at 10 µM: 10 μM compound; for activity at 20 µM: 20 μM compound. Here is the method: as §1, §2, §3, §4

In a further assay the target is T3, ALDH2 (Homo sapiens, UniProt P05091).
T3 construct: His-tag (N); made in house; host or cells: E. coli BL21
T3 sequence (P05091 18-517): T1 sequence (P05091 18-517)
The experiment in a line: ALDH2 activity with 20 μM of the compound (Table 3). The note with it: 20 μM compound. Here is the method: as §1, §2, §4

Substitutions are numbered along the chain they refer to.

Consider `COc1ccc(CNC(=O)c2cc(-c3cccnc3CO)ccc2OCC2CC2)cc1F` [AC7], for which, on ALDH2*1/*1, the activity at 2.5 µM turned out to be 133%, the activity at 5 µM turned out to be 181%, the activity at 10 µM was 266% and the activity at 20 µM was 331%. Also, at ALDH2*1/*2, the activity at 2.5 µM is 176%, the activity at 5 µM came to 244%, the activity at 10 µM turned out to be 291% and the activity at 20 µM is 434%. Moreover, the activity at 20 µM at ALDH2 is over 250%.
In the case of `COc1ccc(CNC(=O)c2cc(-c3c(CO)ccc[n+]3[O-])ccc2OCC2CC2)cc1F` [AC14, 2-(4-(cyclopropylmethoxy)-3-((3-fluoro-4-methoxybenzyl)carbamoyl)phenyl)-3-(hydroxymethyl)pyridine 1-oxide], on ALDH2*1/*1, the activity at 2.5 µM was found to be 134%, the activity at 5 µM was 138%, the activity at 10 µM stood at 162% and the activity at 20 µM is 189%. In addition, at ALDH2*1/*2, the activity at 2.5 µM was 103%, the activity at 5 µM turned out to be 121%, the activity at 10 µM worked out at 157% and the activity at 20 µM was 194%. The activity at 20 µM at ALDH2 was in the range of 150 to 250%.
For `COc1ccc(CNC(=O)c2cc(-c3ccccc3CO)ncc2OCC2CC2)cc1F` [AC3], at ALDH2*1/*1, the activity at 2.5 µM was determined as 150%, the activity at 5 µM amounted to 195%, the activity at 10 µM is 220% and the activity at 20 µM was 319%. Further, on ALDH2*1/*2, the activity at 2.5 µM came out at 180%, the activity at 5 µM is 245%, the activity at 10 µM was 310% and the activity at 20 µM was determined as 376%. Also, at ALDH2, the activity at 20 µM lay in the range of 150 to 250%.
As for `COc1ccc(CNC(=O)c2cc(-c3cc(F)ccc3CO)cnc2OCC2CC2)cc1F` [AC20], at ALDH2*1/*1, the activity at 2.5 µM was 170%, the activity at 5 µM was determined as 238%, the activity at 10 µM turned out to be 308% and the activity at 20 µM is 403%. Also, on ALDH2*1/*2, the activity at 2.5 µM was found to be 157%, the activity at 5 µM was 218%, the activity at 10 µM is 255% and the activity at 20 µM amounted to 93%. Besides, at ALDH2, the activity at 20 µM was over 250%.
Take `COc1ccc(CNC(=O)c2cc(-c3cccc(F)c3CO)cnc2OCC2CC2)cc1F` [AC18]: at ALDH2*1/*1, the activity at 2.5 µM was found to be 119%, the activity at 5 µM was determined as 131%, the activity at 10 µM is 171% and the activity at 20 µM was determined as 187%. Besides, at ALDH2*1/*2, the activity at 2.5 µM was found to be 127%, the activity at 5 µM is 145%, the activity at 10 µM was 172% and the activity at 20 µM stood at 197%. The activity at 20 µM at ALDH2 lay in the range of 150 to 250%.
In the case of `COc1ccc(CNC(=O)c2cc(-c3ccccc3CO)ccc2OCC2CC2)cc1F` [AC2, 4-(cyclopropylmethoxy)-N-(3-fluoro-4-methoxybenzyl)-2′-(hydroxymethyl)-[1,1′-biphenyl]-3-carboxamide], on ALDH2*1/*1, the activity at 2.5 µM was determined as 215%, the activity at 5 µM stood at 275%, the activity at 10 µM was 328% and the activity at 20 µM worked out at 443%. Besides, on ALDH2*1/*2, the activity at 2.5 µM turned out to be 256%, the activity at 5 µM is 338%, the activity at 10 µM was 408% and the activity at 20 µM worked out at 471%. Moreover, the activity at 20 µM on ALDH2 was over 250%.
Consider `COc1ccc(CNC(=O)c2cc(-c3c(F)cccc3CO)cnc2OCC2CC2)cc1F` [AC19], for which, at ALDH2*1/*1, the activity at 2.5 µM stood at 132%, the activity at 5 µM was 143%, the activity at 10 µM was determined as 214% and the activity at 20 µM came out at 236%. For the same molecule, at ALDH2*1/*2, the activity at 2.5 µM turned out to be 133%, the activity at 5 µM came to 163%, the activity at 10 µM amounted to 191% and the activity at 20 µM was 230%. On ALDH2, the activity at 20 µM was over 250%.
Consider `COc1ccc(CNC(=O)c2cc(-c3c[n+]([O-])ccc3CO)ccc2OCC2CC2)cc1F` [AC13], for which, at ALDH2*1/*1, the activity at 2.5 µM was found to be 164%, the activity at 5 µM was found to be 168%, the activity at 10 µM was found to be 215% and the activity at 20 µM was 237%. In addition, at ALDH2*1/*2, the activity at 2.5 µM turned out to be 146%, the activity at 5 µM amounted to 195%, the activity at 10 µM was 247% and the activity at 20 µM is 296%. Also, the activity at 20 µM on ALDH2 lay in the range of 150 to 250%.
With `COc1ccc(CNC(=O)c2cc(-c3c(CO)cccc3N(C)C)ccc2OCC2CC2)cc1F` [AC16], on ALDH2*1/*1, the activity at 2.5 µM turned out to be 106%, the activity at 5 µM came out at 106%, the activity at 10 µM is 105% and the activity at 20 µM is 133%. Also, at ALDH2*1/*2, the activity at 2.5 µM was 104%, the activity at 5 µM was 116%, the activity at 10 µM was 126% and the activity at 20 µM came out at 138%. Moreover, the activity at 20 µM on ALDH2 fell in the range of 100 to 150%.
For `COc1ccc(CNC(=O)c2cc(-c3ccc(F)cc3CO)cnc2OCC2CC2)cc1F` [AC4], on ALDH2*1/*1, the activity at 2.5 µM is 204%, the activity at 5 µM is 280%, the activity at 10 µM came out at 300% and the activity at 20 µM came out at 363%. Besides, at ALDH2*1/*2, the activity at 2.5 µM was 266%, the activity at 5 µM was determined as 338%, the activity at 10 µM is 390% and the activity at 20 µM is 423%. For the same molecule, the activity at 20 µM on ALDH2 was over 250%.
As for `COc1ccc(CNC(=O)c2cc(-c3c(F)cccc3CO)ccc2OCC2CC2)cc1F` [AC22], at ALDH2*1/*1, the activity at 2.5 µM was 172%, the activity at 5 µM turned out to be 263%, the activity at 10 µM is 313% and the activity at 20 µM was found to be 437%. At ALDH2*1/*2, the activity at 2.5 µM came out at 160%, the activity at 5 µM stood at 194%, the activity at 10 µM worked out at 253% and the activity at 20 µM turned out to be 143%. At ALDH2, the activity at 20 µM was over 250%.
As to `COc1ccc(CNC(=O)c2cc(-c3cc(F)ccc3CO)ccc2OCC2CC2)cc1F` [AC17], on ALDH2*1/*1, the activity at 2.5 µM came out at 229%, the activity at 5 µM amounted to 262%, the activity at 10 µM turned out to be 340% and the activity at 20 µM turned out to be 318%. Besides, on ALDH2*1/*2, the activity at 2.5 µM was found to be 156%, the activity at 5 µM was determined as 173%, the activity at 10 µM amounted to 176% and the activity at 20 µM turned out to be 195%. The activity at 20 µM on ALDH2 is over 250%.

The values are drawn from US9879036B2, “Mitochondrial aldehyde dehydrogenase-2 binding compounds and methods of use thereof” (Aviv Therapeutics, Inc., priority 2014, dated 2018).
